No end group written: not given here.
Test: Superose 6 gel filtration chromatography of peptide-lipid complexes
Assay type: physicochemical
Conditions: peptide/DPPC complexes, 1 mg peptide and 3 mgs DPPC, colyophilized, in 0.9% NaCl
Description: An aliquot of the resulting reconstituted preparation can be characterized to confirm that the complexes in the preparation have the desired size distribution; e.g., the size distribution of HDL. Gel filtration chromatography can be used to this end. In the working examples described infra, a Pharmacia Superose 6 FPLC gel filtration chromatography system was used. The buffer used contains 150 mM NaCl in 50 mM phosphate buffer, pH 7.4. A typical sample volume is 20 to 200 microliters of complexes containing 5 mgs peptide/ml. The column flow rate is 0.5 mls/min. A series of proteins of known molecular weight and Stokes' diameter as well as human HDL are used as standards to calibrate the column. The proteins and lipoprotein complexes are monitored by absorbance or scattering of light of wavelength 254 or 280 nm.
Peptide-phospholipid complexes containing peptide 149 (SEQ ID NO:149) were prepared by colyophilization as described above. The preparation contained 1 mg peptide and 3 mgs DPPC by weight. […] The chromatography was monitored by absorbance or scattering of light of wavelength 280 nm. […] The vast majority of both phospholipid and UV absorbance were recovered together in a few fractions with peaks at approximately 15.8 mls. […]

Stokes' diameter: 87 Angstroms
Sequence: PVLELFENLWERLLDALQKKLK [peptide 149]
